# From patent publication US7943616B2, “Azaindoles for inhibiting aurora2 and other kinases” (Aventis Pharmaceuticals Inc., priority 2001, dated 2011)
row,SMILES,melting point
1,"c1cncc(OCCCn2cc(-c3cc4nccnc4[nH]3)c3ccccc32)c1 [Example 6, 6-{1-[3-(Pyridin-3-yloxy)-propyl]-1H-indol-3-yl}-5H-pyrrolo[2,3-b]pyrazine]",208 to 209 °C
2,"Cn1cc(-c2cc3nccnc3[nH]2)c2cc(O)ccc21 [Example 7, 1-methyl-3-(5H-pyrrolo[2,3-b]pyrazin-6-yl)-1H-indol-5-ol]",289 to 290 °C
3,"COc1ccc2[nH]cc(-c3cc4nccnc4[nH]3)c2c1 [Example 11, 6-(5-methoxy-1H-indol-3-yl)-5H-pyrrolo[2,3-b]pyrazine]",268 to 271 °C
4,"Cn1cc(-c2cc3cccnc3[nH]2)c2cc(N)ccc21 [Example 18, 1-Methyl-3-(1H-pyrrolo[2,3-b]pyridin-2-yl)-1H-indol-5-ylamine]",247 to 248 °C
5,CC(C)(C)c1ccc(-c2[nH]c3nccnc3c2CCC#N)cc1 [Example 23],215 to 216 °C
6,"CC(C)(C)c1ccc(-c2[nH]c3nccnc3c2CCCO)cc1 [Example 26, 3-[6-(4-tert-Butyl-phenyl)-5H-pyrrolo[2,3-b]pyrazin-7-yl]-propan-1-ol]",187 to 189 °C
7,"CCOC(=O)COc1cc(-c2cc3nccnc3[nH]2)ccc1OC [Example 27, [2-Methoxy-5-(5H-pyrrolo[2,3-b]pyrazin-6-yl)-phenoxy]acetic Acid Ethyl Ester]",183 to 184 °C
8,"COc1ccc2[nH]cc(-c3cc4c(C(N)=O)ccnc4[nH]3)c2c1 [Example 42, 2-(5-Methoxy-1H-indol-3-yl)-1H-pyrrolo[2,3-b]pyridine-4 Carboxamide]",> 320 °C
